Test results: US8435744B2 (priority 2005, dated 2013)
Like-named read-outs stand apart in the source and are kept apart here.

What was measured:
[1] = biological target: PrP^Sc content in the cells (Mus musculus, UniProt P04925); conditions: read-out: IC50 (concentration for which 50% of the PrP^Sc content in the cells is inhibited); cited from earlier work
[2] = biological target: PrP^Sc from infected N2a58/22L cells (Mus musculus, UniProt P04925); assay type: cell-based, murine
[3] = biological target: PrP^C from uninfected N2a58 cells (Mus musculus, UniProt P04925); assay type: cell-based, murine; conditions: uninfected cells, 1 to 10 μM, FIG. 3
[4] = prolonged incubation up to 14 days, 5 and 20 μM, FIG. 4

PrP^Sc from infected N2a58/22L cells, sequence (P04925 23-230 limits assumed): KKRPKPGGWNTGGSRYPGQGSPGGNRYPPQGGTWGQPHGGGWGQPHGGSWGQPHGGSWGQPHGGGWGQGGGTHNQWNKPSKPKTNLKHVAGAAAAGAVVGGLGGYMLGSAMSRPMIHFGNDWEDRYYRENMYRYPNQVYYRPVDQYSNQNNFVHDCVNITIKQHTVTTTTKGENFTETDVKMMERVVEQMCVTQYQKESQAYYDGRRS
PrP^Sc content in the cells, sequence (P04925 23-230 limits assumed): as above
PrP^C from uninfected N2a58 cells, sequence (P04925 23-230 limits assumed): as above

For N#Cc1c(N)nc(Sc2ccccc2N)c(C#N)c1-c1ccco1 [2-amino-6-[(2-aminophenyl)thio]-4-(2-furyl)pyridine-3,5-dicarbonitrile], the IC50 [1] is listed as roughly 15 µM.

In the case of COc1ccc(S(=O)(=O)NNC(=O)c2ccc(Cn3cnc(Cl)c3Cl)o2)cc1 [N′-1-({5-[(4,5-dichloro-1H-imidazol-1-yl)methyl]-2-furyl}carbonyl)-4-methoxybenzene-1-sulfonohydrazide], the IC50 [1] is given as roughly 15 µM.

With CSc1nccc(-c2ccc(Br)s2)n1 [compound A, 4-(5-bromo-2-thienyl)-2-(methylthio)pyrimidine] the “time at which the state of equilibrium of amplified oligomeric forms is reached” value ([2]; 5 μM) was 11 days, the “time at which the state of equilibrium of amplified oligomeric forms is reached” value ([2]; 20 μM) was 3 days and the “increase in the signal on the oligomeric forms compared with an untreated control” value ([2]; 20 μM, N2a58/22L cells, immunoblot after PK) was “approximately 90 fold”. For the same compound, the “effect on the amount of PrP^Sc in the infected cells” value ([2]; infected cells, immunoblotting after proteinase K, FIGS. 1 and 2) was “notably increases the amount of PrP^Sc”, the “appearance of oligomeric forms of greater size than those observed over 3 days” value [2, 4] was “does not induce the appearance of oligomeric forms having a size greater” and the “depletion of monomeric form PrP^Sc27-30 to the benefit of oligomeric forms around 50-60 kDa” value [2, 4] was “No depletion”. The “oligomerization of PrP^C in the cells” value [3] was “does not increase the oligomerization of PrP^C”.

With Nc1nccc(-c2ccc(-c3cccs3)s2)n1 [compound B, 4-(5-thienyl-2-thienyl)-2-(amino)-pyrimidine] the “amount of oligomeric forms observed compared with compound A” value ([2]; 14 days, 20 μM, FIG. 6) was “much greater than for the compound A”, the “amount of oligomeric forms of PrP^Sc at 5 μM versus higher concentrations” value ([2]; N2a58/22L cells, 3 days, 5 to 20 μM) was “identical to that observed for the concentration of 10 or 20 μM” and the “amplification capacity, comparative kinetics between compounds B and A” value ([2]; incubation period of 14 days) was “greater amplification capacity”.
